In one data set the test system is DENV-2 (16681 strain). In words: Virus titer by plaque assay in infected A549 cells, DENV-2. The data set is classed as cell-based, Dengue virus. The conditions noted are these: 10 μM, MOI 0.01, supernatant 72 hpi. The method, then: (§1) The viruses used in this study included DENV-1 (02-20 strain) ([Tajima et al., 2006]), DENV-2 (16681 strain), DENV-3 (09-59 strain), and DENV-4 (09-48 strain). The strains were cultured in Vero cells, and stored at -80°C. Dengue virus titer was determined by plaque assay as summarized below.
(§2) Baby hamster kidney-21 cells were cultured in a 12-well plate and infected with serial dilutions of virus suspension, then incubated at 37°C for 1 h. At 1 hpi, cells were incubated in EMEM containing 2% FBS and 1% methylcellulose. After 5 days of incubation, the cells were fixed with paraformaldehyde and stained with methylene blue. Virus titer was calculated as plaque-forming units (PFU)/mL. The half-maximal effective concentration (EC50) against each virus was calculated using the Reed and Muench method.
(§3) FIGURE 1 Hirsutine inhibits replication of dengue virus serotypes DENV-1–4. (A) Structural formula of hirsutine. (B) Hirsutine inhibits viral replication of all four serotypes. A549 cells were infected with DENV-1–4 at a multiplicity of infection (MOI) of 0.01 in the presence of 10 μM hirsutine. Cell culture supernatants were collected 72 hpi, and viral titers were determined by plaque assay. All data were normalized to their control (0 μM of hirsutine).

Data set [1] relates to DGL2 and DGL2-mut DENV-1 replicon. In words: Transient subgenomic reporter replicon assay (Gaussia luciferase). The conditions noted are these: 10 μM, A549 cells. For orientation: Replicon systems follow genome replication, usually without infectious particles.
Experimental: A549 cells were cultured in a 24-well plate and transfected with DGL2 and DGL2-mut using X-tremeGENE HP DNA transfection reagent (Roche, Basel, Switzerland); 10 μM of hirsutine was added at baseline. The cell culture medium was collected and replaced with fresh medium containing 10 μM of hirsutine every 24 h. The Gaussia luciferase activity in the culture medium was measured using a microplate reader.
(A) Schematic representation of the replicon system, which uses DGL2 and DGL2-mut. DGL2-mut was inserted in non-replicative mutation into RNA-dependent RNA polymerase (RdRp). CMVp, cytomegalovirus promoter; Gluc, secretory Gaussia luciferase; IRES, internal ribosome entry site; GAA, mutation in the active center for RdRp; and Rib, ribozyme sequence. (B) Replicon plasmids DGL2 and DGL2-mut were transfected to A549 cells in the presence of 10 μM hirsutine. After 24 and 72 h, luciferase activity in the culture supernatant was analyzed. Each data point represents the mean ± standard deviation from triplicate experiments.
For data set [2], the system named is DENV-1 (02-20 strain). Put plainly: Plaque assay, EC50 against DENV-1 (fourth screening). The conditions noted are these: compounds; for EC50: Dengue virus, DENV1, against DENV-1, plaque assay, Reed and Muench method; for SI: selectivity index from CC50 and EC50. The data set is classed as cell-based, Dengue virus.
The subject of a further data set is DENV-3 (09-59 strain). Put plainly: Virus titer by plaque assay in infected A549 cells, DENV-3. It counts as cell-based, Dengue virus. As to conditions: 10 μM, MOI 0.01, supernatant 72 hpi. The method, then:
as §1, §2, §3

The test system of data set [3] is influenza A virus (subtype H3N2). Also on record: method as in Takayama et al., 1997; Tietze and Zhou, 1999. The conditions noted are these: ref Takayama et al., 1997, Tietze and Zhou, 1999; cited from earlier work.
Another data set has as its system DENV-4 (09-48 strain). Put plainly: Virus titer by plaque assay in infected A549 cells, DENV-4. It counts as cell-based, Dengue virus. The conditions noted are these: 10 μM, MOI 0.01, supernatant 72 hpi. The method, then: as §1, §2, §3
Data set [4] relates to DENV-1. Put plainly: Time-of-drug-addition assay. It counts as cell-based, Dengue virus. As to conditions: 10 μM added at 0, 2, 4, 6, 8, 12, 18 hpi; A549, MOI 1.0; titer at 24 hpi. The method, then: Next, the cells were rinsed twice with phosphate-buffered saline, and fresh medium was added. At 0, 2, 4, 6, 8, 12, and 18 hpi, hirsutine at a final concentration of 10 μM was added to the infected cells. At 24 hpi, the cell culture supernatant was collected, and viral titer was assessed by plaque assay.
(§4) FIGURE 2 Hirsutine inhibits the late stage of the dengue virus lifecycle. (A) Time-of-drug-addition assay. Hirsutine (10 μM) was added at 0, 2, 4, 6, 8, 12, and 18 h post-DENV-1 infection. After 24 h, virus titers in the culture supernatant were analyzed by plaque assay. (B) Time-of-drug-elimination assay. Hirsutine (10 μM) was treated for 0–2, 0–4, and 0–6 h post-DENV-1 infection. After 24 h, virus titers in the culture supernatant were analyzed by plaque assay. ^∗p < 0.05. […] DMSO, dimethyl sulfoxide; hpi, hours post-infection; and PFU, plaque-forming units.

Data set [5] concerns DENV-1 (02-20 strain). In words: Virus titer by plaque assay in infected A549 cells, DENV-1. The data set is classed as cell-based, Dengue virus. As to conditions: 10 μM, MOI 0.01, supernatant 72 hpi. The method, then:
as §1, §2, §3

The subject of data set [6] is DENV-1. In words: Time-of-drug-elimination assay. The data set is classed as cell-based, Dengue virus. As to conditions: 10 μM, A549, MOI 1.0, titer at 24 hpi. As for the experimental part: Next, the cells were rinsed with phosphate-buffered saline twice, and fresh medium containing 10 μM hirsutine was added. At 2, 4, and 6 hpi, the cells were rinsed with phosphate-buffered saline twice and fresh medium was added. At 24 hpi, the cell culture supernatant was collected, and viral titer was measured by plaque assay.
as §4

Data set [7] concerns DENV-NS3 protein expression, DENV-1. Put plainly: Western blot of DENV-NS3 protein in DENV-1-infected A549 cells. The data set is classed as cell-based, Dengue virus. The conditions noted are these: MOI 0.1 and 1.0, 18 hpi. As for the experimental part:
Western blotting was performed as described previously ([Hishiki et al., 2014]). Briefly, DENV-1-infected A549 cells were co-cultured with 10 μM hirsutine, 100 μM ribavirin, or 10 μM bromocriptine. Protein samples were separated by SDS-PAGE and transferred to polyvinylidene fluoride blotting membranes (GE Healthcare, Little Chalfont, United Kingdom). Anti-NS3 rabbit polyclonal antibodies (GTX124252; GeneTex, Irvine, CA, United States) and anti-glyceraldehyde-3-phosphate dehydrogenase (GAPDH) mouse monoclonal antibodies (MAB374; Millipore, Billerica, MA, United States) were used as primary antibodies.
A549 cells were infected with DENV-1 at a MOI of 0.1 and 1.0 in the presence of 10 μM hirsutine (Hi), 100 μM ribavirin (Ri), or 10 μM bromocriptine (Br). Cell lysate was collected 18 h post-infection, and DENV-NS3 (top) and GAPDH (bottom) protein expression levels were assessed by Western blot.

The nature of another data set: MTT cytotoxicity assay. The data set is classed as cell-based. The conditions noted are these: human, compounds, A549 cells, 3-day incubation. The method, then: Human lung carcinoma cells (A549) and baby hamster kidney cells (BHK-21) were maintained in Eagle’s minimum essential medium (EMEM; Life Technologies, Carlsbad, CA, United States) supplemented with 10% fetal bovine serum (FBS; JR Scientific, Woodland, CA, United States), penicillin, and streptomycin sulfate (Nacalai Tesque, Kyoto, Japan) at 37°C with 5% CO2. Hybridoma-producing anti-E antibody (HB-112) was maintained in RPMI 1640 medium (Life Technologies, Carlsbad, CA, United States) supplemented with 10% FBS and antibiotics at 37°C with 5% CO2.
Cell viability was assessed by 3-(4,5-dimethylthiazol-2-yl)-2,5-diphenyltetrazolium bromide (MTT) assay. A549 cells were cultured in a 96-well plate with the selected compound (0–10 μM) or extract (0–100 μg/mL). After a 3-day incubation, 30 μL of 0.5% MTT solution was added to each well. After incubation for 3 h, the supernatant was replaced with 100 μL of methanol with 1% Triton X-100, and then vortexed to dissolve the formazan. Absorbance at 565 nm and reference at 655 nm were measured using a microplate reader (Berthold Technologies, Bad Wildbad, Germany). The half-maximal cytotoxicity concentration (CC50) was calculated using the Reed and Muench method ([Reed and Muench, 1938]).
On the technique in general: Formazan colour is commonly taken as a measure of viable cells.

SMILES strings stand for the structures.

Take `CC[C@H]1CN2CCc3c([nH]c4ccccc34)[C@H]2C[C@@H]1/C(=C\OC)C(=O)OC` [Hirsutine]: the virus titer result in the data set with DENV-2 (16681 strain), in the data set with DENV-3 (09-59 strain), in the data set with DENV-4 (09-48 strain) and with DENV-1 (02-20 strain) [5] was “decreased” throughout. For the same molecule, the “Gaussia luciferase activity in culture supernatant” value is recorded as “did not reduce luciferase activity levels” in data set [1] (DGL2, 24 h and 72 h post-transfection); “did not reduce luciferase activity levels” in data set [1] (non-replicate DGL2-mut, 24 h and 72 h post-transfection). Besides, in the data set with DENV-1 (02-20 strain) [2], a half-maximal response (EC50) required 1970 nM. Also, the SI in the data set on DENV-1 (02-20 strain) [2] is recorded as >5.3. Further, the “EC50 more effective than ribavirin” value in [3] was “over 10 fold”. Further, in the data set with DENV-1 [4], the “virus titer in culture supernatant, time-of-drug-addition” value is “reduced the virus titer significantly up to 12 hpi”. Besides, the “virus titer in culture supernatant, time-of-drug-elimination” value with DENV-1 [6] (2-h treatment) is “did not decrease the virus titer”; with DENV-1 [6] (4-h treatment), “did decrease”. Besides, the “NS3 protein expression levels” value in [7] (10 μM) is listed as “did not change”. Moreover, the CC50 – broadly, the concentration at which the toxic effect on the cells reaches its halfway point – at 3 day in the data set “MTT cytotoxicity assay” was > 10 µM.

Take `C[C@H]1CC[C@@]2(OC1)O[C@H]1C[C@H]3[C@@H]4CC[C@@H]5C[C@@H](O[C@@H]6O[C@H](CO)[C@H](O)[C@H](O)[C@H]6O[C@@H]6O[C@H](CO)[C@@H](O)[C@H](O)[C@H]6O)CC[C@]5(C)[C@H]4CC[C@]3(C)[C@H]1[C@@H]2C` [Timosaponin-AIII]: in the data set on DENV-1 (02-20 strain) [2], the response was half-maximal at 1700 nM (EC50) and the SI was >5.9. The CC50 at 3 day in the data set “MTT cytotoxicity assay” is > 10 µM.

Turning to `CC(C)C[C@H]1C(=O)N2CCC[C@H]2[C@]2(O)O[C@](NC(=O)[C@@H]3C=C4c5cccc6[nH]c(Br)c(c56)C[C@H]4N(C)C3)(C(C)C)C(=O)N12` [bromocriptine], the “NS3 protein expression levels” value in data set [7] (10 μM) is “decreased significantly”.

As to `NC(=O)c1ncn([C@@H]2O[C@H](CO)[C@@H](O)[C@H]2O)n1` [ribavirin], the “NS3 protein expression levels” value in [7] (100 μM) is given as “decreased significantly”.

The values above are taken from PMC5582420, “Hirsutine, an Indole Alkaloid of Uncaria rhynchophylla, Inhibits Late Step in Dengue Virus Lifecycle” (Frontiers in Microbiology, 2017).
